Measurements: patent US5763596A, “C-4' modified adenosine kinase inhibitors” (Metabasis Therapeutics, Inc., priority 1996, dated 1998)

Tests used:
male Lewis rats = assay: adjuvant arthritis; format: in vivo, rat
Experimental: Heat-killed Mycobacterium butyricum was ground to a find powder and suspended in heavy mineral oil at 10 mg/ml. The suspension was injected subcutaneously into the base of the tail of male Lewis rats at 0.1 ml per rat. This immunization procedure induces an agressive arthritis that is apparent at day 10-12 and rapidly worsens. The volumes of the hind paws were measured before immunization and on days 12, 15 and 20 after immunization. The baseline paw volume was subtracted from the arthritic volumes to yield paw swelling. AK inhibitors were given by daily oral gavage beginning on day 4 after immunization, using polyethylene glycol-400 as the vehicle. Control rats received vehicle only. Percent inhibition was calculated based on paw swelling in AK inhibitor treated group compared to vehicle treated group, and is reported in Table 11.

male SA rats = assay: rat skin lesion model, inhibition of neutrophil accumulation induced by carrageenan; format: in vivo
Experimental: The dorsal skin of male SA rats was shaved and carrageenan (Type λ) or phosphate-buffered saline was injected intradermally. Three hours later, the injection sites were biopsied and weighed. Neutrophil content of the skin biopsies was measured as the quantity of myeloperoxidase (MPO) present in a tissue homogenate. The excised, weighed skin pieces were placed in 4 ml 0.5% mixed alkyl trimethylammonium bromide and homogenized at the highest speed for 15 seconds in a Polytron homogenizer (Brinkmann Instruments, Westbury, N.Y.). Lipids were extracted by adding 1 ml of dichloromethane to the homogenate, vortexing vigorously, and centrifuging at 1000 g, 5° C. for 15 min. Fifty μl of each supernatant was added in duplicate to a 96 well assay plate, along with dilutions of human myeloperoxidase standard. Potassium phosphate buffer (pH 6.1) containing 0.36 mg/ml of o-dianisidine dihydrochloride and 0.001% hydrogen peroxide was added (200 μl/well), and the absorbance at 450 nm was read after 5 min incubation at room temperature. The myeloperoxidase content of each skin piece was calculated from a standard curve constructed using least-square regression, and expressed as units of MPO/g of tissue.
AK inhibitors were administered orally using polyethylene glycol-400 as vehicle or intraperitoneally using dimethylsulfoxide as vehicle, at indicated time before skin lesion injection. For each experiment, the average of all values from saline-induced lesions was calculated. This baseline value was then subtracted from values obtained from carrageenan-induced lesions. Percent inhibition for AK inhibitors were calculated from these baseline-corrected values.

Female SA rats = assay: liver toxicity, serum SGOT, SGPT and total bilirubin; format: in vivo, rat; design: unit not given here; settings: 2 x 37.5 μmol/kg i.v. infusion (total 75 μmol/kg), 12 h after second dose
Experimental: Female SA rats (150-200 g) were anesthetized with halothane and cannulated via the internal jugular vein. The animals were allowed to recover for 3 days. […] Twelve hours later, an additional 37.5 μmol kg was infused over 40 minutes (total dose=75 μmol/kg). Twelve hours after the second dose, the animals were anesthetized with halothane and exsanguinated through the descending aorta. Serum was prepared and liver enzymes (serum glutamic-oxaloacetic transaminase (SGOT), serum glutamic-pyruvic transaminase (SGPT)) and total bilirubin in the serum samples were determined by a commercial laboratory.

adenosine kinase = adenosine kinase (AK) inhibition; format: biochemical, pig heart or recombinant human; settings: 0.5 μM [U-14C] adenosine, pH 7.0, 20 minutes
Experimental: Adenosine kinase activity was measured essentially as described by Yamada et al. (Yamada, Y., Goto, H., Ogasawara, N. (1988) Biochim. Biophys. Acta 660, 36-43.) with a few minor modifications. […] Natl. Acad. Sci. […] The reactions were incubated for 20 minutes at […] The assay was quenched upon spotting 30 μL aliquots onto 2 cm^2 pieces of Whatman DE81 anion exchange paper. The papersquares were washed for 3 minutes in 6 L distilled/deionized water to remove the unreacted adenosine. The washed squares were rinsed in 95% ethanol and dried in an oven at 100° C. for 10 minutes. The amount of ^14 C-AMP was quantified by scintillation counting.

Rats (male, Simonsen) = assay: formalin paw model; format: in vivo, rat; design: concentration or dose not given beside the values; settings: oral, 90 min before formalin
Experimental: In this assay, injection of formalin, an irritant, into the hindpaw of rats typically evokes a biphasic response of pain-related behaviors. Phase 1 of the response which is brief, lasting approximately 0-5 min post-injection,is followed by a more prolonged phase 2, lasting approximately 10-80 min post-injection. Phase 1 behavior is thought to be a direct effect of the irritant on nociceptors at the injection site while phase 2 behavior is thought to include a hyperalgesic component mediated by sensitization of neuronal elements within the spinal cord. Studies from other laboratories have found the first portion of Phase 2 (sometimes referred to as Phase 2a) to be most responsive to pharmacological manipulation.
Rats (male, Simonsen) weighing between 100-200 g, are used in the present experiments. For screening purposes drugs are administered orally 90 min prior to initiation of formalin test. At designated intervals the animals in groups of 4 are placed individually in a small animal restrainer with the right hindpaw accessible through a hole in the bottom of the restrainer. The formalin paw assay is initiated by the injection using a 30G needle of 50 μl of a 5% formalin solution in saline into the right plantar surface of each hindpaw. The rat is then immediately placed in a separate plexiglass box and scoring (described below) of the animal's behavior is begun at 1.7 min after formalin injection. The instantaneous behavior of each animal in a group of 4 was observed and assigned a score once in each 20 second interval. This sequence is repeated over a 30 min period. The scoring protocol is an adaptation of the method published by Dubuisson and Dennis (Pain 4:161-174, 1977) which assigns a score from 0-3 as follows:
0--no discernible favoring of injected paw, weight evenly distributed
1--injected paw is favored, rests lightly on floor
2--injected paw is elevated
3--injected paw is vigorously licked, bitten or shake
Scores are continuously recorded directly onto an Excel spreadsheet. […] 2) the total number of incidences specifically of licking/biting behavior is summed over Phase 2 and mean values determined from 6 different animals with results expressed as % inhibition compared to vehicle control.

[1] = 10 mg/kg daily oral gavage from day 4
[2] = 20 mg/kg daily oral gavage from day 4

Structure (SMILES): O[C@@H]1[C@H](O)CO[C@H]1n1cc(-c2ccccc2)c2c(Nc3ccc(F)cc3)ncnc21 [compound 28]
- % inh at day 12 (paw swelling) (male Lewis rats; [1]): 29 ± 7%
- % inh at day 15 (paw swelling) (male Lewis rats; [1]): 22 ± 4%
- % inh at day 12 (paw swelling) (male Lewis rats; [2]): 52 ± 23%
- % inh at day 15 (paw swelling) (male Lewis rats; [2]): 52 ± 22%
- % inh at day 20 (paw swelling) (male Lewis rats; [2]): 40 ± 8%
- % inhibition of neutrophil accumulation (male SA rats; i.p., pretreatment 30 min, 3 mg/kg): 18%
- % inhibition of neutrophil accumulation (male SA rats; i.p., pretreatment 30 min, 10 mg/kg): 62%
- % inhibition of neutrophil accumulation (male SA rats; i.p., pretreatment 30 min, 30 mg/kg): 79%
- % inhibition of neutrophil accumulation (male SA rats; i.p., pretreatment 60 min, 10 mg/kg): 49%
- % inhibition of neutrophil accumulation (male SA rats; i.p., pretreatment 120 min, 10 mg/kg): 60%
- % inhibition of neutrophil accumulation (male SA rats; i.p., pretreatment 240 min, 10 mg/kg): 28%
- % inhibition of neutrophil accumulation (male SA rats; p.o., pretreatment 60 min, 10 mg/kg): 28%
- % inhibition of neutrophil accumulation (male SA rats; p.o., pretreatment 60 min, 20 mg/kg): 40%
- % inhibition of neutrophil accumulation (male SA rats; p.o., pretreatment 120 min, 20 mg/kg): 84%
- % inhibition of neutrophil accumulation (male SA rats; p.o., pretreatment 240 min, 20 mg/kg): 77%
- % inhibition of neutrophil accumulation (male SA rats; p.o., pretreatment 420 min, 20 mg/kg): 20%
- average serum Total Bilirubin (Female SA rats): 0.07
- average serum content of SGOT (Female SA rats): 61
- average serum content of SGPT (Female SA rats): 23
- IC50 (adenosine kinase): 28 nM
- % Inhibition Phase 1 Composite score (Rats (male, Simonsen); 1.7-5 min post-formalin): 9.2%
- % Inhibition Phase 2 Composite score (Rats (male, Simonsen); 10.3-30 min post-formalin): 37.4%
- % Inhibition Phase 2. Licking/biting (Rats (male, Simonsen); Phase 2): 76.1%
